Laboratory results published in ChEMBL document CHEMBL1201862, “PubChem BioAssay data set” (2004).
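Interpolation was linear, between the two tested concentrations surrounding the appropriate level; five concentrations were tested over 48 hours in 96-well plates. Abbreviation: GI50, concentration required for 50% inhibition of growth.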 The source made the active and inactive calls. Cut-off read from the data, not from the text of the source: active = GI50 up to about 1.1 µM and inactive = higher. Residues, ends and D or L forms follow the SMILES beside them. *: point of attachment. Boc = CC(C)(C)OC(=O)*; OBn = c1ccc(CO*)cc1; Bn = c1ccc(C*)cc1

Columns and labels:
Test in all cases: DTP human tumour cell line panel, 48 h
NCI-H522 = tested on: NCI-H522
LOX IMVI = tested on: LOX IMVI
A498 = tested on: A498
K562 = tested on: K562
PC-3 = tested on: PC-3
KM12 = tested on: KM12
SF-295 = tested on: SF-295
HOP-62 = tested on: HOP-62
A549 = tested on: A549
HCT-116 = tested on: HCT-116
SR = tested on: SR
MCF7 = tested on: MCF7
HCT-15 = tested on: HCT-15
MDA-MB-231 = tested on: MDA-MB-231
CCRF-CEM = tested on: CCRF-CEM
MOLT-4 = tested on: MOLT-4
IGROV-1 = tested on: IGROV-1
M14 = tested on: M14
SNB-75 = tested on: SNB-75
OVCAR-3 = tested on: OVCAR-3

Row | SMILES | GI50 (NCI-H522) | GI50 (LOX IMVI) | GI50 (A498) | GI50 (K562) | GI50 (PC-3) | GI50 (KM12) | GI50 (SF-295) | GI50 (HOP-62) | GI50 (A549) | GI50 (HCT-116) | GI50 (SR) | GI50 (MCF7) | GI50 (HCT-15) [µM] | GI50 (MDA-MB-231) | GI50 (CCRF-CEM) | GI50 (MOLT-4) | GI50 (IGROV-1) | GI50 (M14) | GI50 (SNB-75) | GI50 (OVCAR-3)
1 | COC(=O)C(CCSC)NC(=O)CSc1nnc(COc2ccc(Cl)cc2)n1-c1ccccc1 (configuration not stated) | 3.77 µM (inactive) | 13.8 µM (inactive) | 21.3 µM (inactive) | 24.5 µM (inactive) | 18.9 µM (inactive) | 18.2 µM (inactive) | 17 µM (inactive) | 3.08 µM (inactive) | 26.8 µM (inactive) | 16.6 µM (inactive) | 8.53 µM (inactive) | 21.1 µM (inactive) | 18.6 | 17 µM (inactive) | 23.7 µM (inactive) | 13.9 µM (inactive) | 16 µM (inactive) | 18.7 µM (inactive) | 16.7 µM (inactive) | 
2 | CCN(CC)Cc1ccccc1CC(=O)N1c2ccccc2C(=O)Nc2cccnc21 | > 100 µM (inactive) | > 100 µM (inactive) | > 100 µM (inactive) | 79.6 µM (inactive) | > 100 µM (inactive) | > 100 µM (inactive) | > 100 µM (inactive) | 64 µM (inactive) | > 100 µM (inactive) | 38.8 µM (inactive) | 34.3 µM (inactive) | 41.2 µM (inactive) | > 100 | > 100 µM (inactive) | 33.7 µM (inactive) | 46.7 µM (inactive) | > 100 µM (inactive) | > 100 µM (inactive) |  | > 100 µM (inactive)
3 | O=c1oc2ccccc2c(O)c1C(C/C(CCN1CCCC1)=N/O)c1ccccc1 (configuration not stated) | > 100 µM (inactive) | > 100 µM (inactive) | > 100 µM (inactive) | > 31.6 µM (inactive) | > 100 µM (inactive) | > 100 µM (inactive) | > 100 µM (inactive) | > 100 µM (inactive) | > 100 µM (inactive) | > 100 µM (inactive) | > 100 µM (inactive) | > 100 µM (inactive) | > 100 | > 100 µM (inactive) |  | > 48 µM (inactive) | > 100 µM (inactive) | > 100 µM (inactive) | > 91.2 µM (inactive) | > 100 µM (inactive)
4 | COc1cc(/C=C2\N=C(C)N(n3c(-c4ccccc4)nc4ccccc4c3=O)C2=O)cc(OC)c1OC | 46.3 µM (inactive) | > 100 µM (inactive) | > 100 µM (inactive) | > 100 µM (inactive) | > 100 µM (inactive) | > 100 µM (inactive) | > 100 µM (inactive) | > 100 µM (inactive) | > 100 µM (inactive) | > 100 µM (inactive) | > 100 µM (inactive) | > 100 µM (inactive) | > 100 | > 100 µM (inactive) | > 100 µM (inactive) | > 100 µM (inactive) | > 100 µM (inactive) | > 100 µM (inactive) | > 100 µM (inactive) | 
5 | COc1cc2c(c(O)c1OC)C(=O)C1CCC(=O)N1C2c1cccc2ccccc12 (configuration not stated) | 23.7 µM (inactive) |  | > 100 µM (inactive) | 18.9 µM (inactive) | 25.2 µM (inactive) | 42.3 µM (inactive) | 43.2 µM (inactive) | 54.8 µM (inactive) | 28.8 µM (inactive) | 50.5 µM (inactive) | 26.5 µM (inactive) | 32.5 µM (inactive) | 41.3 | 23.8 µM (inactive) | 18.5 µM (inactive) | 21.4 µM (inactive) | 36.1 µM (inactive) | 51.4 µM (inactive) | > 100 µM (inactive) | 30.6 µM (inactive)
6 | CC(=O)NC(=N/N=C1/C(=O)Nc2ccc(C)cc21)NC(C)=O | > 100 µM (inactive) | > 100 µM (inactive) | > 100 µM (inactive) | > 100 µM (inactive) | > 100 µM (inactive) | > 100 µM (inactive) | 52.1 µM (inactive) | > 100 µM (inactive) | > 100 µM (inactive) | > 100 µM (inactive) | > 100 µM (inactive) | > 100 µM (inactive) | > 100 | > 100 µM (inactive) | > 100 µM (inactive) | > 100 µM (inactive) | > 100 µM (inactive) | > 100 µM (inactive) | 31.6 µM (inactive) | 
7 | Cc1cn(C2CC(O)C(Cn3nncc3Cn3nc(Br)c(=O)[nH]c3=O)O2)c(=O)[nH]c1=O (configuration not stated) | > 100 µM (inactive) | > 100 µM (inactive) | > 100 µM (inactive) |  | > 100 µM (inactive) | > 100 µM (inactive) | > 100 µM (inactive) | > 100 µM (inactive) | > 100 µM (inactive) | > 100 µM (inactive) | > 100 µM (inactive) | > 100 µM (inactive) | > 100 | > 100 µM (inactive) | > 100 µM (inactive) | > 100 µM (inactive) | > 100 µM (inactive) | > 100 µM (inactive) |  | > 100 µM (inactive)
8 | O=C1Nc2cc([N+](=O)[O-])ccc2C(=O)N2CCC[C@@H]12 | > 100 µM (inactive) | > 100 µM (inactive) | > 100 µM (inactive) | > 100 µM (inactive) | > 100 µM (inactive) | > 100 µM (inactive) | > 100 µM (inactive) | > 100 µM (inactive) | > 100 µM (inactive) | > 100 µM (inactive) | > 100 µM (inactive) | > 100 µM (inactive) | > 100 | > 100 µM (inactive) | > 100 µM (inactive) | > 100 µM (inactive) | > 100 µM (inactive) | > 100 µM (inactive) | > 100 µM (inactive) | > 100 µM (inactive)
9 | COc1ccc(-n2c(SC(CN3CCOCC3)CN3CCCC3=O)nc3ccccc3c2=O)cc1 (configuration not stated) | > 100 µM (inactive) |  | > 100 µM (inactive) | > 100 µM (inactive) | > 100 µM (inactive) | > 100 µM (inactive) | > 100 µM (inactive) |  | 87.7 µM (inactive) | > 100 µM (inactive) | > 100 µM (inactive) | > 100 µM (inactive) | > 100 | > 100 µM (inactive) | 67.5 µM (inactive) | 90.8 µM (inactive) | > 100 µM (inactive) | > 100 µM (inactive) | 70.8 µM (inactive) | > 100 µM (inactive)
10 | COC(=O)c1c(OC(C)=O)ccc2c1c1cc3ccccc3c(OC(C)=O)c1n2C | 4.97 µM (inactive) |  | 13.7 µM (inactive) | 21.4 µM (inactive) | 30.1 µM (inactive) | 34.6 µM (inactive) | 40.5 µM (inactive) | 50 µM (inactive) | 19.9 µM (inactive) | 15.4 µM (inactive) | 3.69 µM (inactive) | 9.33 µM (inactive) | 22.7 | 30 µM (inactive) | 28.1 µM (inactive) | 5.75 µM (inactive) | 2.73 µM (inactive) | 29.4 µM (inactive) | 4.67 µM (inactive) | 23.9 µM (inactive)
11 | O=C1C(Cl)=C(N2CCN(CCOCCO)CC2)C(=O)c2ccccc21 | 1.77 µM (inactive) | 6.4 µM (inactive) | 18.5 µM (inactive) | 2.2 µM (inactive) | 18 µM (inactive) | 16.3 µM (inactive) | 18 µM (inactive) |  | 18.7 µM (inactive) | 3.97 µM (inactive) | 2.72 µM (inactive) | 3.56 µM (inactive) | 11.9 | 4.43 µM (inactive) | 2.33 µM (inactive) | 2.05 µM (inactive) | 15.3 µM (inactive) | 9.29 µM (inactive) | 14.2 µM (inactive) | 2.85 µM (inactive)
12 | COc1ccc(CNc2nc(NCc3ccc(OC)cc3)nc(Nc3ccccc3)n2)cc1 | 5.73 µM (inactive) |  | 39.1 µM (inactive) | 5 µM (inactive) | 5.69 µM (inactive) | 3.37 µM (inactive) | 2.58 µM (inactive) | > 100 µM (inactive) | 9.86 µM (inactive) | 11.4 µM (inactive) | 1.11 µM (active) | 5.18 µM (inactive) | 3.39 | 24.1 µM (inactive) |  | 3.01 µM (inactive) | 9.71 µM (inactive) | 45.7 µM (inactive) | 4.13 µM (inactive) | 2.62 µM (inactive)
13 | COc1ccc(C(C)NNC(=O)c2cc[n+]([BH2-]C#N)cc2)cc1F (configuration not stated) | > 100 µM (inactive) | > 100 µM (inactive) | > 100 µM (inactive) | > 100 µM (inactive) | > 100 µM (inactive) | > 100 µM (inactive) | > 100 µM (inactive) | > 100 µM (inactive) | > 100 µM (inactive) | > 100 µM (inactive) | > 100 µM (inactive) | > 100 µM (inactive) | > 100 | > 100 µM (inactive) | > 100 µM (inactive) | > 100 µM (inactive) | > 100 µM (inactive) | > 100 µM (inactive) | > 100 µM (inactive) | > 100 µM (inactive)
14 | CC#Cc1ccc(-c2ccccc2)s1 | > 100 µM (inactive) | > 100 µM (inactive) | > 100 µM (inactive) |  | > 100 µM (inactive) | > 100 µM (inactive) | > 100 µM (inactive) |  | > 100 µM (inactive) | > 100 µM (inactive) | > 100 µM (inactive) | > 100 µM (inactive) | > 100 | > 100 µM (inactive) | > 100 µM (inactive) | > 100 µM (inactive) | > 100 µM (inactive) | > 100 µM (inactive) | > 100 µM (inactive) | > 100 µM (inactive)
15 | CC(C)CC(NC(=O)C(Cc1ccccc1)NC(=O)C(COCc1ccccc1)NC(=O)OC(C)(C)C)C(=O)OCc1ccccc1 (stereo not drawn) (Boc-Ser(Bn)-Phe-Leu-OBn; configuration not given here) | 13.8 µM (inactive) | 19.8 µM (inactive) | 95.9 µM (inactive) | 9.57 µM (inactive) | 22.3 µM (inactive) |  | 21.8 µM (inactive) | 49.4 µM (inactive) |  | 18.5 µM (inactive) | 20.2 µM (inactive) | 37.9 µM (inactive) | 16.3 | 27.1 µM (inactive) | 26.2 µM (inactive) | 13.9 µM (inactive) | 17.4 µM (inactive) | 37.1 µM (inactive) | 22.1 µM (inactive) | 20 µM (inactive)
